Holding throughout (type): cell-based
For experiment [1], the system named is RA-resistant neuroblastoma cells. The experiment in a line: Morphological differentiation with 5-AZA and 13-cis-RA. The following applies: 5-AZA with 1 μM 13-cis-RA, 3 days and 6 days.
The subject of experiment [2] is SK-N-BE(2) cells. The experiment in a line: Western blot of RA signaling proteins. Conditions: 1 μM 5-AZA with 1 μM RA, 24 hrs. The procedure: (§1) Protein extraction and immunoblot. Cells were washed with ice-cold PBS buffer (Invitrogen, 20012050) and lysed with harvest buffer (10 mM Hepes pH 7.9, 50 mM NaCl, 500 mM sucrose, 0.1 mM EDTA and 0.5% Trition X-100) supplemented with 1% Halt inhibitors (Thermo Scientific™, 78443) for 10 minutes. Cell lysate was centrifuged at 3000 rpm for 3 min at 4° C. The supernatant containing cytosolic proteins was transferred to a different tube. The pellet containing nuclear proteins was dissolved with nuclear lysis buffer (10 mM Hepes pH 7.9, 0.5M NaCl, 0.1 mM EDTA, 0.1 mM EGTA and 0.1% NP40) supplemented with 1% Halt inhibitors (Thermo Scientific™, 78443) for 5 minutes at 4° C. Then the solution was sonicated at 4° C. for 6 cycles (1 cycle=30 s sonication and 30 s cooldown with “High” energy intensity) using a Bioruptor® Plus sonication (Diagenode, UCD-300). After sonication, the solution was centrifuged at 15,000 rpm for 10 minutes. The supernatant was kept as nuclear extraction. Protein concentration was determined by BCA assay (Thermo Scientific, 23227). 5 μg nuclear proteins or 7.5 μg cytosolic proteins were boiled in loading buffer with reducing reagents (Invitrogen, NuPAGE™ LDS Sample Buffer (4X), NP0007), then separated with SDS-PAGE (Nupage™ 4-12% Bis-Tris Protein Gels, 1.0 mm, Invitrogen™, NP0322BOX). Protein was transferred onto a nitrocellulose membrane (Thermo Scientific™, 88018). After blocking in 5% non-fat milk for 30 minutes at room temperature (RT), the primary antibody was added for incubation overnight at 4° C. After washing with TBST (CST, #9997, 1:10 diluted by deionized water) for 3 times, HRP-conjugated secondary antibodies were applied. Signals were detected with an ECL kit (Thermo Scientific™, 34577) by using BioRad Universal Hood II.

In experiment [3] the test system is SK-N-BE(2) cells. The experiment in a line: Global DNA methylation analysis by LC-MS (5mdc/dc). Conditions: 1 μM, 5 h, 24 h and 48 h vs DMSO.
A further experiment relates to SK-N-BE(2). The experiment in a line: Cell proliferation and morphology change under RA treatment. The following applies: 13-cis-RA. The procedure: (§2) Cell proliferation and clonogenic assay. 2×10^4 cells were seeded in 12 well-plate and allowed to attached overnight. Then the cells were treated with various conditions as indicated for 48 h or 96 h (n=3). After treatment, cells were counted using hemocytometer.

Another experiment deals with CHP134. The experiment is described as above. The following applies: CHP134, 13-cis-RA. Here is the method: as §2
In a further experiment the test system is NB16. The experiment is described as above. The following applies: NB16, 13-cis-RA. The procedure: as §2
In the next experiment the test system is SMS-KCNR. The description is as above. The following applies: 13-cis-RA. The procedure:
as §2

In the next experiment the test system is NB16 cells. The experiment in a line: Expression of RA receptors under RA treatment. The following applies: NB16, RA 24 h. The procedure: as §1
Another experiment concerns SK-N-BE2. The experiment in a line: Expression of RA receptors under RA treatment. The following applies: SK-N-BE2, RA 24 h. Here is the method: as §1

Molecules are shown by their SMILES.

For the molecule `Nc1ncn([C@@H]2O[C@H](CO)[C@@H](O)[C@H]2O)c(=O)n1` [5-Aza, 5-Azacytidine], the “differentiation with RA (morphological changes)” value in experiment [1] is listed as “induced differentiation”. For the same molecule, in the experiment with SK-N-BE(2) cells [2], the “RA-induced expression of CRABP2” value was “enhanced” and the “RA-induced expression of RARγ” value is recorded as “enhanced”. Further, the “global DNA methylation (ratio of 5-methyl-deoxycytidine to deoxycytidine)” value with SK-N-BE(2) cells [3] is recorded as “reduced”.

As for `CC1=C(/C=C/C(C)=C/C=C/C(C)=C\C(=O)O)C(C)(C)CCC1` [RA, 13-cis-retinoic acid], the proliferation arrest entry in the experiment on SK-N-BE(2) (48 hrs and 96 hrs) is “did not show”; in the experiment on NB16 (48 hrs and 96 hrs) it was “did not show”. For the same molecule, the differentiation morphology result in the experiment with SK-N-BE(2) (96 hrs) and in the experiment with NB16 (96 hrs) was “did not show” throughout. Besides, the proliferation entry was “proliferation arrest” with CHP134 (48 hrs and 96 hrs); “proliferation arrest” in the experiment with SMS-KCNR (48 hrs and 96 hrs). Besides, the neuron differentiation morphology result in the experiment with CHP134 (96 hrs) and in the experiment on SMS-KCNR (96 hrs) was “significantly induced” in each case. For the same molecule, the “induction of RARα upon RA treatment (vs RA-sensitive cell lines)” value in the experiment on NB16 cells and with SK-N-BE2 was “less induction” throughout. The “induction of RARγ upon RA treatment (vs RA-sensitive cell lines)” value with NB16 cells and in the experiment with SK-N-BE2 was “less induction” in each case.

These data come from patent publication US11918550B2, “Sensitization of cancer cells to differentiation therapy with mitochondrial uncoupler niclosamide ethanolamine” (The Board of Trustees of the Leland Stanford Junior …, priority 2020, dated 2024).
